This data set can be described thus: Apparent intrinsic clearance in human liver microsomes. It counts as ADME, Microsome. The settings on record: read-out: CLH(app).

A value given as a limit tells only on which side of the number the result lay.

As for `Cc1ncccc1Oc1ncnc(N2C3CC4CC2CC(C3)N4C(=O)OCC(C)C)c1C`, the CLint scaled is greater than 30 mL/min/kg.

Source of the values: ChEMBL document CHEMBL2311407, “Design and synthesis of diazatricyclodecane agonists of the G-protein-coupled receptor 119” (J Med Chem, 2013).
